From patent publication US10287292B2, “CXCR7 antagonists” (CHEMOCENTRYX, INC., priority 2012, dated 2019)
pIC50: −log10 of the molar value.

Target: CXCR7 receptor (Homo sapiens (Human), UniProt P25106)
Test: Serum Binding Analysis: displacement of 125I-labeled SDF-1 from CXCR7 in 100% human serum
Details: 125I SDF-1 displacement in 100% human serum, MCF-7 and/or MDA-MB-435S CXCR7 transfected cells, 3 hrs at 4° C.; read-out: Avg Ser IC50
Procedure: The compounds were combined with cells expressing the CXCR7 receptor (e.g., MCF cells or cells transfected to express CXCR7) in the presence of the 125 I-labeled SDF-1 chemokine as detailed in Determination of IC50 values. Reagents and Cells (see below). The ability of the compounds to displace the labeled chemokine from the CXCR7 receptor sites at multiple concentrations was then determined with the screening process.
In Table 1, Avg Bind IC50 refers to the Buffer Binding Analysis described below, while Avg Ser IC50 refers to the Serum Binding Analysis described below. All compounds were prepared as described in the Examples above, or by related methods substituting readily available starting materials.
^125I-labeled SDF-1 was purchased from Perkin-Elmer Life Sciences, Inc. (Boston, Mass.). The MCF-7 (adenocarcinoma; mammary gland) cell line was obtained from the American Type Culture Collection (ATCC, Manassas, Va.) or and was cultured in DMEM (Mediatech, Herndon, Va.) supplemented with 10% fetal bovine serum (FBS) (HyClone Logan, Utah) and bovine insulin (0.01 mg/mL) (Sigma. St. Louis, Mo.) at 37° C. in a humidified incubator at a 5% CO2/air mixture. CXCR7 transfected MDA-MB-435S were produced as described below. MDA-MB-435S human breast cancer line, was purchased from ATCC, and cultured in DMEM/10% FBS medium. The complete coding sequence of the gene encoding CXCR7 (a.k.a. CCXCKR2, hRDC1), was isolated from MCF-7 cells using μMACs mRNA isolation kit (Miltenyi Biotec, Auburn, Calif.). DNA contamination was removed by DNase digestion via RNeasy columns (Qiagen, Inc., Valencia, Calif.) and cDNA was generated using GeneAmp RNA PCR Core Kit (Applied Biosystems, Foster City. Calif.). PCR of cDNA samples was performed using Taq PCR Master Mix kit (Qiagen. Inc.) and hRDC1 primers harboring 5′ and 3′ Not I sites (hRDC1F 5′ […]-3, hRDC1R 5′-[…]-3′) Not I digested PCR product was ligated into Not I digested pcDNA3.1(+)(Invitrogen, Carlsbad, Calif.) and screened for orientation and sequence confirmed. Plasmid DNA was then isolated from overnight bacterial cultures by Maxiprep (Qiagen, Inc.). Plasmid DNA (10 μg) was added to MDA-MB-435s cells and cells were electroporated (0.22 kV, 960 uF) via Gene Pulser (Biorad laboratories, Hercules, Calif.). 48 hr post-electroporation, cells were transferred to selection medium (600 ug/ml G418).
In order to more properly assess the binding efficacy of the compounds, radioligand binding assays were carried out in the presence of 100% human serum to more accurately reflect the in vivo environment. […] Target compounds were tested to determine their ability to bind with CXCR7 sites on MCF-7 and/or MDA-MB-435S CXCR7 transfected cells. Efficiency-maxim/zed radioligand binding using filtration protocols as described in Dairaghi D J, et al., HHV8-encoded vMIP-I selectively engages chemokine receptor CCR5. Agonist and antagonist profiles of viral chemokines., J. Biol. Chem. 1999 Jul. 30; 274(31): 21569-74 and Gosling J, et al., Cutting edge: identification of a novel chemokine receptor that binds dendritic cell- and T cell-active chemokines including ELC, SLC, and TECK, J. Immunol. 2000 Mar. 15; 164(6):2851-6 was used.
In these assays, MCF-7 and/or MDA-MB-435S cells were interrogated with the target compounds and the ability of these compounds to displace 125 I radiolabeled SDF-1 was assessed using the protocol described in Dairaghi and Gosling. The target compounds were added to the plate to the indicated concentration followed by addition of cells and radiolabeled chemokine (125I SDF-1), both in the following medium (human AB serum with 10 mM HEPES added to stabilize at pH 7.4). All assays were then incubated for 3 hrs at 4° C. with gentle agitation.

Sequence of CXCR7 receptor (P25106 whole entry): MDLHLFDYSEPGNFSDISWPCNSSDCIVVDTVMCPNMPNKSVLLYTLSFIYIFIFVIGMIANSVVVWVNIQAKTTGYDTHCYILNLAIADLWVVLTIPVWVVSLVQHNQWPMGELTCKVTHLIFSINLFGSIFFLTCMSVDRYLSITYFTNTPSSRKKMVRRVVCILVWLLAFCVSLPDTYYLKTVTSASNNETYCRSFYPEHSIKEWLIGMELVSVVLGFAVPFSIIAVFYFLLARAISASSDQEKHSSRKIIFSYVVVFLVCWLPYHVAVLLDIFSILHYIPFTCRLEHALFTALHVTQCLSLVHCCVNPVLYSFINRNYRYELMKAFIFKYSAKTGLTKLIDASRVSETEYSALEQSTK

| pIC50 | SMILES |
| --- | --- |
| ≥ 6.30 | Cc1nc(C(=O)N[C@H]2CCN(c3nccn4ccnc34)C2)nn1-c1ccc(F)cc1 [Compound 1.001] |
| 4.82 to 5.60 | N#Cc1ccc(-n2cnc(C(=O)N[C@H]3CCN(c4nccn5ccnc45)C3)n2)cc1 [Compound 1.002] |
| ≥ 6.30 | O=C(N[C@H]1CCN(c2nccn3cccc23)C1)c1ncn(-c2ccc(F)cc2)n1 [Compound 1.003] |
| 5.60 to 6.30 | Cc1ccc(-n2cnc(C(=O)N[C@H]3CCN(c4nccn5ccnc45)C3)n2)cc1 [Compound 1.004] |
| 4.82 to 5.60 | CS(=O)(=O)c1ccc(-n2cnc(C(=O)N[C@H]3CCN(c4nccn5ccnc45)C3)n2)cc1 [Compound 1.005] |
| ≥ 6.30 | O=C(N[C@H]1CCN(c2nccn3ccnc23)C1)c1ncn(-c2ccccc2F)n1 [Compound 1.006] |
| 5.60 to 6.30 | CC(C)c1cn2cccc2c(N2CC[C@H](NC(=O)c3ncn(-c4ccc(F)cc4)n3)C2)n1 [Compound 1.007] |
| 5.60 to 6.30 | CC(C)c1cn2cccc2c(N2CC[C@H](NC(=O)c3ncn(-c4ccccc4)n3)C2)n1 [Compound 1.008] |
| ≥ 6.30 | CC(C)c1cn2cccc2c(N2CC[C@H](NC(=O)c3csc(N4CCC(O)CC4)n3)C2)n1 [Compound 1.009] |
| 5.60 to 6.30 | O=C(N[C@@H]1CCN(c2nccn3ccnc23)C1)c1ncn(-c2ccc(F)cc2)n1 [Compound 1.010] |
| 4.82 to 5.60 | O=C(N[C@H]1CCN(c2nccn3ccnc23)C1)c1ccc(N2CCC(O)CC2)nn1 [Compound 1.011] |
| ≥ 6.30 | CCc1cn2cccc2c(N2CC[C@H](NC(=O)c3csc(N4CCC(O)CC4)n3)C2)n1 [Compound 1.012] |
| ≥ 6.30 | CCc1cn2cccc2c(N2CC[C@H](NC(=O)c3ncn(-c4ccc(F)cc4)n3)C2)n1 [Compound 1.013] |
| ≥ 6.30 | O=C(N[C@H]1CCN(c2nccn3ccnc23)C1)c1ncn(-c2ccc(F)c(F)c2)n1 [Compound 1.014] |
| ≥ 6.30 | CCc1cn2cccc2c(N2CC[C@H](NC(=O)c3ncn(-c4ccccc4)n3)C2)n1 [Compound 1.015] |
| ≥ 6.30 | O=C(N[C@H]1CCN(c2nccn3ccnc23)C1)c1ncn(-c2cccc(F)c2)n1 [Compound 1.016] |
| ≥ 6.30 | O=C(N[C@H]1CCN(c2nccn3cccc23)C1)c1cn(-c2ccccc2)nn1 [Compound 1.017] |
| 4.82 to 5.60 | O=C(N[C@H]1CCN(c2nccn3nccc23)C1)c1ncn(-c2ccccc2)n1 [Compound 1.018] |
| ≥ 6.30 | Cc1ccc2nc(C(=O)N[C@H]3CCN(c4nc(C)cn5cccc45)C3)ncc2c1 [Compound 1.019] |

| pIC50 | SMILES |
| --- | --- |
| ≥ 6.30 | Cc1cn2cccc2c(N2CC[C@H](NC(=O)c3ncn(-c4ccc(F)cc4)n3)C2)n1 [Compound 1.020] |
| ≥ 6.30 | Cc1cn2cccc2c(N2CC[C@H](NC(=O)c3noc(-c4ccccc4)n3)C2)n1 [Compound 1.021] |
| ≥ 6.30 | Cc1cn2cccc2c(N2CC[C@H](NC(=O)c3ncn(-c4ccc(Cl)cc4)n3)C2)n1 [Compound 1.022] |
| ≥ 6.30 | Cc1cn2cccc2c(N2CC[C@H](NC(=O)c3csc(-c4ccccc4)n3)C2)n1 [Compound 1.023] |
| ≥ 6.30 | Cc1cn2cccc2c(N2CC[C@H](NC(=O)c3coc(-c4ccccc4)n3)C2)n1 [Compound 1.024] |
| ≥ 6.30 | Cc1cn2cccc2c(N2CC[C@H](NC(=O)c3csc(N4CCCC4)n3)C2)n1 [Compound 1.025] |
| ≥ 6.30 | O=C(N[C@H]1CCN(c2nccn3ccnc23)C1)c1csc(N2CCC2)n1 [Compound 1.026] |
| ≥ 6.30 | O=C(N[C@H]1CCN(c2nccn3cccc23)C1)c1ncc(C2CCCC2)cn1 [Compound 1.028] |
| ≥ 6.30 | Cc1cn2cccc2c(N2CC[C@H](NC(=O)c3ccn(-c4ccc(Cl)cc4)n3)C2)n1 [Compound 1.029] |
| ≥ 6.30 | Cc1cn2cccc2c(N2CC[C@H](NC(=O)c3cn(-c4ccccc4)cn3)C2)n1 [Compound 1.030] |
| ≥ 6.30 | Cc1cn2ccnc2c(N2CC[C@H](NC(=O)c3cn(-c4ccccc4)cn3)C2)n1 [Compound 1.031] |
| ≥ 6.30 | Cc1cn2ccnc2c(N2CC[C@H](NC(=O)c3ncn(-c4ccccc4)n3)C2)n1 [Compound 1.032] |
| 5.60 to 6.30 | CC(O)c1cnc(C(=O)N[C@H]2CCN(c3nccn4cccc34)C2)nc1 (stereo partly drawn) [Compound 1.033] |
| ≥ 6.30 | O=C(N[C@H]1CCN(c2nccn3ccnc23)C1)c1csc(N2CCCC2)n1 [Compound 1.034] |
| ≥ 6.30 | O=C(N[C@H]1CCN(c2nccn3cnnc23)C1)c1cn(-c2ccccc2)cn1 [Compound 1.035] |
| ≥ 6.30 | O=C(N[C@H]1CCN(c2nccn3ccnc23)C1)c1cn(-c2ccccc2)cn1 [Compound 1.036] |
| ≥ 6.30 | Cc1cn2cccc2c(N2CC[C@H](NC(=O)c3csc(N4CCC(O)CC4)n3)C2)n1 [Compound 1.037] |
| ≥ 6.30 | O=C(N[C@H]1CCN(c2nccn3cccc23)C1)c1csc(N2CCCC2)n1 [Compound 1.038] |
| ≥ 6.30 | O=C(N[C@H]1CCN(c2nccn3cccc23)C1)c1cn(-c2ccccc2)cn1 [Compound 1.039] |

| pIC50 | SMILES |
| --- | --- |
| ≥ 6.30 | Cc1cn2cccc2c(N2CC[C@H](NC(=O)c3ncn(-c4ccccc4)n3)C2)n1 [Compound 1.040] |
| ≥ 6.30 | Cc1cn2cccc2c(N2CC[C@H](NC(=O)c3ccn(-c4ccc(F)cc4)n3)C2)n1 [Compound 1.041] |
| ≥ 6.30 | NC(=O)C1(NC(=O)c2ccn(-c3ccc(F)cc3)n2)CCN(c2nccn3cccc23)C1 (stereo not drawn) [Compound 1.042] |
| 4.82 to 5.60 | O=C(NC1(C(=O)O)CCN(c2nccn3cccc23)C1)c1ccn(-c2ccc(F)cc2)n1 (stereo not drawn) [Compound 1.043] |
| ≥ 6.30 | Cc1ccc2nc(C(=O)N[C@H]3CCN(c4nccn5cnnc45)C3)ncc2c1 [Compound 1.044] |
| ≥ 6.30 | Cc1ccccc1-c1nc(C(=O)N[C@H]2CCN(c3nccn4ccnc34)C2)cs1 [Compound 1.045] |
| ≥ 6.30 | Cc1ccccc1-c1nc(C(=O)N[C@H]2CCN(c3nccn4cccc34)C2)cs1 [Compound 1.046] |
| ≥ 6.30 | Cc1ccc2nc(C(=O)N[C@H]3CCN(c4nccn5ccnc45)C3)ncc2c1 [Compound 1.048] |
| ≥ 6.30 | CN(C)c1cnc(C(=O)N[C@H]2CCN(c3nccn4cccc34)C2)cn1 [Compound 1.049] |
| ≥ 6.30 | O=C(NC1(CO)CCN(c2nccn3ccnc23)C1)c1ncn(-c2ccccc2)n1 (stereo not drawn) [Compound 1.050] |
| ≥ 6.30 | O=C(NC1(CO)CCN(c2nccn3cccc23)C1)c1ncn(-c2ccccc2)n1 (stereo not drawn) [Compound 1.051] |
| ≥ 6.30 | O=C(N[C@H]1CCN(c2nccn3cccc23)C1)c1cnc(C2CC2)cn1 [Compound 1.052] |
| ≥ 6.30 | O=C(N[C@H]1CCN(c2nccn3cccc23)C1)c1ncc2cc(Cl)ccc2n1 [Compound 1.053] |
| ≥ 6.30 | Cc1ccccc1-n1ccc(C(=O)N[C@H]2CCN(c3nccn4cnnc34)C2)n1 [Compound 1.054] |
| ≥ 6.30 | CC1(O)CCN(c2nc(C(=O)N[C@H]3CCN(c4nccn5cccc45)C3)cs2)CC1 [Compound 1.055] |
| 5.60 to 6.30 | CC1(O)CCN(c2nc(C(=O)N[C@H]3CCN(c4nccn5ccnc45)C3)cs2)CC1 [Compound 1.056] |
| ≥ 6.30 | Cc1ccccc1-n1ccc(C(=O)N[C@H]2CCN(c3nccn4ccnc34)C2)n1 [Compound 1.057] |
| ≥ 6.30 | O=C(NC1(CO)CCN(c2nccn3ccnc23)C1)c1csc(N2CCC(O)CC2)n1 (stereo not drawn) [Compound 1.058] |
| ≥ 6.30 | O=C(NC1(CO)CCN(c2nccn3ccnc23)C1)c1ccn(-c2ccc(F)cc2)n1 (stereo not drawn) [Compound 1.059] |
